Test results taken from paper PMC12299168 (Pharmaceutics, 2025).
Read-outs that look alike come from different tables or passages of the source.

Columns and labels:
[1] = tested on: flare and wheal suppression; conditions: children aged 6–11 years; cited from earlier work
[2] = tested on: porcine liver esterase (PLE); experiment: Hydrolysis of prodrug in porcine liver esterase (PLE); type: in vitro ADME; conditions: for first-order rate constant (kobs): during 6 h; for half-life at 0.25 mg/mL (LCZ 2HCl Eq.): pig, porcine liver esterase (PLE) solution, 10% DMSO, 37 °C, read-out: T1/2 (time required for 50% degradation of prodrug) (converted)
Procedure: The ester bond cleavage assay was adapted from reference, with minor modifications, and carried out using PLE to evaluate the hydrolytic ratio (n = 3). […] At 0, 1, 2, 4, 6 and 24 h, the aliquot (100 μL) was collected using a 28 G syringe, and then immediately diluted 10-fold with a solvent composed of Acetonitrile:DW = 90:10 (v/v) to stop enzymatic action. The elution was replenished with an equal concentration and volume of fresh esterase solution. The diluted samples were filtered through a double 0.45 μm PTFE syringe filter. The filtrates were analyzed for their prodrug and LCZ content by HPLC to determine the conversion of the prodrug to LCZ.
(§1) Esterase, plasma hydrolysis and chemical stability studies were performed using the HPLC method. The HPLC equipment used was Infinity 1260 (Agilent, CA) fitted with a quaternary pump, an autosampler, a UV detector set at a wavelength of 230 nm and a column compartment maintained at 20 °C. The sample was eluted from a Fortis C18 (150 × 4.6 mm, 5 μm particle size) (Fortis, Neston, UK) analytical column using Acetonitrile:distilled water:sulfuric acid (90:9.6:0.4, v/v). The mobile phase was pumped isocratically at a flow rate of 1 mL/min with a 20 μL injection volume.

[3] = Hydrolysis of prodrugs in rat plasma; type: in vitro ADME; conditions: 37 °C, during 6 h
Procedure: First, 100 μL of stock solution was added to 3.9 mL of heparinized rat plasma (n = 3). The samples were incubated at 37 °C in a shaking chamber (100 rpm). At 0, 1, 2, 4, 6 and 24 h, the aliquot (100 μL) was collected, and then immediately diluted 10-fold with a solvent composed of Acetonitrile:DW = 90:10 (v/v) to precipitate the protein. An equal volume of fresh rat plasma was replenished after each sampling. The samples were centrifuged at 5000 rpm for 10 min and the supernatants were filtered through a double 0.45 μm PTFE syringe filter. The filtrates were analyzed for their prodrug and LCZ content by HPLC to determine the conversion of the prodrug to LCZ.
as §1

Structure (SMILES)	EC50 for flare suppression [1]	EC50 for wheal suppression [1]	first-order rate constant (kobs) ([2]; PLE 0.2 units/mL)	first-order rate constant (kobs) ([2]; PLE 0.5 units/mL)	first-order rate constant (kobs) ([2]; PLE 2.0 units/mL)	half-life at 0.25 mg/mL (LCZ 2HCl Eq.) ([2]; PLE 0.2 unit/mL)	half-life at 0.25 mg/mL (LCZ 2HCl Eq.) ([2]; PLE 0.5 unit/mL)	half-life at 0.25 mg/mL (LCZ 2HCl Eq.) ([2]; PLE 2.0 unit/mL)	first-order rate constant (kobs) [3]
O=C(O)COCCN1CCN([C@H](c2ccccc2)c2ccc(Cl)cc2)CC1 [LCZ, Levocetirizine]	1.4 ± 0.1 ng/mL	16.1 ± 2.2 ng/mL	–	–	–	–	–	–	–
CCCCCCCCCCOC(=O)COCCN1CCN([C@@H](c2ccccc2)c2ccc(Cl)cc2)CC1 [LCZ-D, Levocetirizine decanoate]	–	–	0.201 h⁻¹	0.253 h⁻¹	0.580 h⁻¹	4 h	3 h	~1 h	0.229 h⁻¹
CCCCCCCCCCCCOC(=O)COCCN1CCN([C@@H](c2ccccc2)c2ccc(Cl)cc2)CC1 [LCZ-L, Levocetirizine laurate]	–	–	0.127 h⁻¹	0.165 h⁻¹	0.498 h⁻¹	5 h	4 h	~2 h	0.157 h⁻¹
